Assays:
[1] = system: MCF7 LTLT (AI-resistant, ER+, cells lacking ESR1 gain-of-function mutations) tumors; assay: MIND model: luciferase-GFP MCF7 LTLT cells in mammary ducts of NSG mice, live luminescence imaging of primary tumors (total photon flux); type: in vivo; details: for Inhibition of primary tumor growth (conclusion in words): MCF7 LTLT tumors, AI-resistant, no ESR1 gain-of-function mutations
Experimental: Luciferase-GFP tagged LTLT cells were injected into the mammary ducts of NSG mice (MIND model) and tumor progression was monitored by live luminescence imaging of primary tumors, as well as ex vivo imaging and histochemical analysis of metastatic sites at study endpoint. Primary tumor area was also measured at study endpoint.
Cells were grown in RPMI containing 10% FBS and 1 μM letrozole.
Mouse studies were performed in compliance with an approved Institutional Animal Care and Use Committee protocol. NSG (NOD.Cg-Prkdcscid Il2rgtmlWjl/SzJ) mice were purchased from The Jackson Laboratories. Prior to injection, mice were anesthetized via inhalation with 2-3% isoflurane in oxygen. […] Tumor growth in situ was followed via imaging in a Xenogen IVIS 200 instrument in the Integrated Small Animal Imaging Research Resource at the University of Chicago.
Lasofoxifene and vehicle were administered subcutaneously. Palbociclib was administered via oral gavage 5 times/week. […] Mice were also treated with combinations of lasofoxifene+palbociclib, fulvestrant+palbociclib, lasofoxifene+letrozole and palbociclib or fulvestrant+palbociclib, or letrozole.
MCF7 LTLT cells labeled with GFP luciferase were injected into the mammary ducts of NSG mice to establish tumors that represent an AI resistant, non-ESR1-mutated, breast cancer model. Treatment with lasofoxifene, palbociclib and combinations of lasofoxifene and palbociclib were carried out in the presence (Let^+) or absence (Let^−) of letrozole, to account for the potential loss of letrozole resistance (“reversion”) in the Let^− cohort. Mice were imaged every other week in a Xenogen IVIS scanner to estimate tumor growth. At the end of the study, mammary glands were removed and weighed.

MCF7 LTLT cells = assay: Ex vivo IVIS radiance of excised liver, lung, brain and bone at sacrifice (metastasis), MCF7 LTLT MIND model; design: species or system NSG mice; details: ex vivo radiance in bones at sacrifice
Experimental: (§1) After cell injection, mice were separated into 2 equal groups; one group received 10 μg/day of letrozole in 15% PEG400 in PBS via subcutaneous injection, “LTLT-Let”; the other group wasn't administered letrozole (“LTLT”). Two to three weeks after cell injections, mice in each group were randomized and treated 5 days/week with lasofoxifene (10 mg/kg, in 100 μl of PBS containing 15% PEG400), palbociclib (70 mg/kg, Med Chem Express #HY-50567, in 50 mM sodium lactate buffer pH4), or vehicle. Lasofoxifene and vehicle were administered subcutaneously. Palbociclib was administered via oral gavage 5 times/week. Fulvestrant (Med Chem Express #HY-13636) (“IC”) (5 mg/mouse) was administered once per week via subcutaneous injection in 100 μl of mineral oil. Mice were also treated with combinations of lasofoxifene+palbociclib, fulvestrant+palbociclib, lasofoxifene+letrozole and palbociclib or fulvestrant+palbociclib, or letrozole.
After 90-93 days of treatment, mice were sacrificed, and mammary gland tumors were excised and weighed. Liver, bone brain and lungs were removed and imaged ex vivo in the IVIS 200, following an in vivo injection of luciferin 8 min prior to sacrifice, to measure luciferase activity.
At sacrifice, livers, lungs, bones and brains were excised and imaged ex vivo on the IVIS. […] Data for Let^+ group were evaluated but are not shown.

MCF7 LTLT primary tumors [2] = assay: Ki67 proliferation index by immunohistochemistry on fixed mammary glands, MCF7 LTLT MIND model; type: in vivo, NSG mice; details: for Effect on Ki67 percentage / proliferation index (in words): MCF7 LTLT model, comparisons as stated; for % Ki67 % mean: MCF7 LTLT primary tumors, IHC at sacrifice after 90-93 days of treatment, manual counting, Let− cohort, and Let+ cohort where label includes letrozole; for Ki67 percentage (mean +/− standard deviation): Let+ cohort (all groups also received letrozole 10 μg/day)
Experimental: as §1
Harvested tissues were fixed in formalin for IHC and H&E staining. Tissue histology was performed by the Human Tissue Resource Center (HRTC) at the University of Chicago. Primary Glands excised from the mice were sectioned and stained with antibodies to estrogen receptor alpha (ThermoScientific, RM-9101-S0, clone SP1), progesterone receptor (ThermoScientific, RM-9102-S0, clone SP2), glucocorticoid receptor (Cell Signaling, Cat #3660), androgen receptor (Abcam, ab133273, clone EPR1535), Ki67 (ThermoScientific, Cat #RM-9106-s, Clone: SP6) and human-specific mouse monoclonal antibody to mitochondria (Abcam, ab92824, clone 112-1).
(§2) H&E and IHC slides were scanned on a Nikon eclipse Ti2 microscope with a 10× objective for high resolution images. Ki67 score was determined using standardized manual counting.
Immunohistochemistry with anti-Ki67 antibody was performed on fixed mammary glands to determine the proliferation index for MCF7 LTLT primary tumors.

MCF7 LTLT primary tumors [3] = assay: Percent tumor area vs total gland area by H&E of mammary gland sections, MCF7 LTLT MIND model; type: in vivo, NSG mice; details: Let− cohort
Experimental: as §1
Harvested tissues were fixed in formalin for IHC and H&E staining. Tissue histology was performed by the Human Tissue Resource Center (HRTC) at the University of Chicago. […]
as §2
H&E slides were scanned on a Nikon microscope and analyzed with the NSI element software.

MCF7 LTLT primary tumors [4] = assay: Mammary gland weight at sacrifice, MCF7 LTLT MIND model; type: in vivo, NSG mice; details: Let− cohort
Experimental: Mouse studies were performed in compliance with an approved Institutional Animal Care and Use Committee protocol. NSG (NOD.Cg-Prkdcscid Il2rgtmlWjl/SzJ) mice were purchased from The Jackson Laboratories. Prior to injection, mice were anesthetized via inhalation with 2-3% isoflurane in oxygen. Injections of single-cell suspensions of 250,000 MCF7 cells in the mammary ducts of inguinal glands 4 and 9 were performed as described (Behbod, F., et al. Breast Cancer Res. 11, R66 (2009); Sflomos, G., et al. Cancer Cell 29, 407-422 (2016); Laine, M., et al. Breast Cancer Res. 23, 54 (2021)). Tumor growth in situ was followed via imaging in a Xenogen IVIS 200 instrument in the Integrated Small Animal Imaging Research Resource at the University of Chicago. For IVIS imaging, mice were injected with 100 μl of a 0.1 M luciferin solution in PBS (Perkin Elmer XenoLight #122799).
After cell injection, mice were separated into 2 equal groups; one group received 10 μg/day of letrozole in 15% PEG400 in PBS via subcutaneous injection, “LTLT-Let”; the other group wasn't administered letrozole (“LTLT”). Two to three weeks after cell injections, mice in each group were randomized and treated 5 days/week with lasofoxifene (10 mg/kg, in 100 μl of PBS containing 15% PEG400), palbociclib (70 mg/kg, Med Chem Express #HY-50567, in 50 mM sodium lactate buffer pH4), or vehicle. […]

[5] = post-menopausal women with no history of breast cancer, wild estrogen receptors; cited from earlier work
[6] = system: MCF-7 xenograft with activating ERα mutations; details: gain-of-function activating mutations in the ERα receptor; previous studies; cited from earlier work

SMILES	Tumor photon flux in the presence of letrozole (in words) ([1]; Let+ cohort, data not shown)	Total photon flux over time (in words) ([1]; imaged every other week, Let− cohorts shown)	Bone readings with a signal above threshold (MCF7 LTLT cells) [readings]	Effect on Ki67 percentage / proliferation index (in words) (MCF7 LTLT primary tumors [2]; Let+ cohort)	% Ki67 % mean (MCF7 LTLT primary tumors [2]) [%]	% tumor area of total gland area, H&E (in words) (MCF7 LTLT primary tumors [3])	Mammary gland weight at end of study (in words) (MCF7 LTLT primary tumors [4])	Risk of ER+ breast cancer (in words) [5]	Inhibition of primary tumor growth (conclusion in words) [1]	Inhibition of primary tumor growth (conclusion in words) ([1]; listed as Lasofoxifene)	Photon flux at day 104 (in words) ([1]; day 104, regardless of the presence of letrozole)	Bone metastasis / bone radiance versus vehicle (in words) (MCF7 LTLT cells)	Reduction of the Ki67 percentage (MCF7 LTLT primary tumors [2]; Let+ cohort, versus letrozole control) [%]	Inhibition of tumor growth and metastasis compared with fulvestrant (in words) [6]	Ki67 percentage (mean +/− standard deviation) (MCF7 LTLT primary tumors [2])
C[C@]12CC[C@@H]3c4ccc(O)cc4C[C@@H](CCCCCCCCC[S+]([O-])CCCC(F)(F)C(F)(F)F)[C@H]3[C@@H]1CC[C@@H]2O (stereo partly shown) [fulvestrant (ICI), fulvestrant]	appeared to increase tumor photon flux	higher than all other treatments	2	do not reduce Ki67% levels	56.8	did not reach statistical significance	inhibits mammary gland weight	–	–	–	–	–	–	–	–
Oc1ccc2c(c1)CC[C@H](c1ccccc1)[C@@H]2c1ccc(OCCN2CCCC2)cc1 [lasofoxifene]	–	–	–	–	46.0	significantly lower	inhibits increases in primary tumor weight	reduce the risk of ER^+ breast cancer	significantly inhibits primary tumor growth	significantly more effective than fulvestrant	significantly lower than vehicle and fulvestrant (ICI) treatment	appears to inhibit metastasis to the bone	6.5	more effective than fulvestrant at inhibiting tumor growth and metastasis to the liver, lung, bone and brain	–
N#Cc1ccc(C(c2ccc(C#N)cc2)n2cncn2)cc1 [letrozole]	–	–	–	significantly lowers the Ki67 percentage	39.5	–	–	–	–	–	–	–	–	–	39.5+/−7.7%
CC(=O)c1c(C)c2cnc(Nc3ccc(N4CCNCC4)cn3)nc2n(C2CCCC2)c1=O [palbociclib]	–	–	–	–	51.7	–	–	–	–	–	–	–	–	–	45.3+/−19.0%

Source: patent publication US12433866B2, “Lasofoxifene treatment of aromatase-resistant ER+ cancer” (Sermonix Pharmaceuticals, Inc., priority 2021, dated 2025)
